Our source for the IC50 values is US20240383874A1, “BENZENE RING DERIVATIVE, AND COMPOSITION AND PHARMACEUTICAL USE THEREOF” (Xizang Haisco Pharmaceutical Co., Ltd., priority 2020, published 2024).

pIC50: −log10 of the molar value. Where a name gives a salt, the structure may show the parent alone.

The first experiment relates to 22RV1 cells. The experiment is described as follows: Experiment 2 on inhibiting 22RV1 cell proliferation (7 days, CellTiter-Glo). It counts as cell-based. Particulars: 1% css-FBS phenol red-free medium, incubated with compound 7 days, read-out: IC50 values on proliferation inhibition of 22RV1 cells. Summed up:
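Survival measured by CellTiter-Glo after 7 days of compound exposure, normalised to DMSO controls, with IC50 fitted by dose-response. Cells (22RV1, 2000/well) were seeded overnight in 1% css-FBS phenol red-free medium before dosing.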
For orientation: Cellular ATP, detected with luciferase, serves as a proxy for viable cell number.
As for `CC(C)(c1ccc(OCc2ccnc(N3C[C@@H]4CN(C5CCN(CC6CCN(c7ccc8c(c7)C(=O)N(C7CCC(=O)NC7=O)C8=O)CC6)CC5)C[C@@H]4C3)n2)cc1)c1cc(Cl)c(OCCCl)c(C#N)c1` (stereo partly drawn) [Compound 16, 3-chloro-2-(2-chloroethoxy)-5-(2-(4-((2-((3aR,6aS)-5-(1-((1-(2-(2,6-dioxopiperidin-3-yl)-1,3-dioxoisoindolin-5-yl)piperidin-4-yl)methyl)piperidin-4-yl)hexahydropyrrolo[3,4-c]pyrrol-2(1H)-yl)pyrimidin-4-yl)methoxy)phenyl)propan-2-yl)benzonitrile], the pIC50 was 6.10.

The same experiment, now with this note: Homo sapiens, 22Rv1, 168 h, 1% css-FBS phenol red-free medium, incubated with compound 7 days, read-out: IC50 values on proliferation inhibition of 22RV1 cells.
`Cn1c(=O)n(C2CCC(=O)NC2=O)c2cccc(N3CCC(C4CCN(CC5CCN(c6nccc(COc7ccc(C(C)(C)c8cc(Cl)cc(C#N)c8)cc7)n6)CC5)CC4)CC3)c21` (stereo not shown) [Compound 85 trifluoroacetate, 3-chloro-5-(2-(4-((2-(4-((1′-(1-(2,6-dioxopiperidin-3-yl)-3-methyl-2-oxo-2,3-dihydro-1H-benzo[d]imidazol-4-yl)-[4,4′-bipiperidin]-1-yl)methyl)piperidin-1-yl)pyrimidin-4-yl)methoxy)phenyl)propan-2-yl)benzonitrile]: the pIC50 was 6.50. Still for that read-out and setting: the same measure for `Cn1c(=O)n(C2CCC(=O)NC2=O)c2ccc(C3CCN(C4CCC5(CC4)CN(c4nccc(COc6ccc(C(C)(C)c7cc(Cl)cc(C#N)c7)cc6)n4)C5)CC3)cc21` (stereo not shown) [Compound 122 trifluoroacetate, 3-chloro-5-(2-(4-((2-(7-(4-(1-(2,6-dioxopiperidin-3-yl)-3-methyl-2-oxo-2,3-dihydro-1H-benzo[d]imidazol-5-yl)piperidin-1-yl)-2-azaspiro[3.5]nonan-2-yl)pyrimidin-4-yl)methoxy)phenyl)propan-2-yl)benzonitrile]: 6.00; for `CC(C)(c1ccc(OCc2ccnc(N3CCC(N4CC(N5CCN(c6ccc7c(c6)C(=O)N(C6CCC(=O)NC6=O)C7=O)CC5)C4)CC3)n2)cc1)c1cc(Cl)cc(C#N)c1` (stereo not shown) [Compound 64 trifluoroacetate, 3-chloro-5-(2-(4-((2-(4-(3-(4-(2-(2,6-dioxopiperidin-3-yl)-1,3-dioxoisoindolin-5-yl)piperazin-1-yl)azetidin-1-yl)piperidin-1-yl)pyrimidin-4-yl)methoxy)phenyl)propan-2-yl)benzonitrile]: 6.20. Same read-out and setting: the same measure for `CC(C)(c1ccc(OCc2ccnc(N3CCC(CN4CCC5(CC4)CCN(c4ccc6c(c4)C(=O)N(C4CCC(=O)NC4=O)C6=O)CC5)C3)n2)cc1)c1cc(Cl)cc(C#N)c1` (stereo not shown) [Compound 86 trifluoroacetate, 3-chloro-5-(2-(4-((2-(3-((9-(2-(2,6-dioxopiperidin-3-yl)-1,3-dioxoisoindolin-5-yl)-3,9-diazaspiro[5.5]undecan-3-yl)methyl)pyrrolidin-1-yl)pyrimidin-4-yl)methoxy)phenyl)propan-2-yl)benzonitrile]: 6.56; for `CC(C)(c1ccc(OCc2ccnc(N3CC4CN(C5CCN(CC6CCN(c7ccc8c(c7)C(=O)N(C7CCC(=O)NC7=O)C8=O)CC6)CC5)CC4C3)n2)cc1)c1cc(Cl)cc(C#N)c1` (stereo not shown) [Compound 82 trifluoroacetate, 3-chloro-5-(2-(4-((2-(5-(1-((1-(2-(2,6-dioxopiperidin-3-yl)-1,3-dioxoisoindolin-5-yl)piperidin-4-yl)methyl)piperidin-4-yl)hexahydropyrrolo[3,4-c]pyrrol-2(1H)-yl)pyrimidin-4-yl)methoxy)phenyl)propan-2-yl)benzonitrile]: 6.38.

As to `CC(C)(c1ccc(OCc2ccnc(N3CCN(C4CC5(CCN(CC6CCN(c7ccc8c(c7)C(=O)N(C7CCC(=O)NC7=O)C8=O)CC6)CC5)C4)CC3)n2)cc1)c1cc(Cl)cc(C#N)c1` (stereo not shown) [Compound 60 trifluoroacetate, 3-chloro-5-(2-(4-((2-(4-(7-((1-(2-(2,6-dioxopiperidin-3-yl)-1,3-dioxoisoindolin-5-yl)piperidin-4-yl)methyl)-7-azaspiro[3.5]nonan-2-yl)piperazin-1-yl)pyrimidin-4-yl)methoxy)phenyl)propan-2-yl)benzonitrile], the pIC50 was 6.06. On to `COc1c(Cl)cc(C(C)(C)c2ccc(OCc3ccnc(N4CCC5(CCC(CN6CCC(c7ccc8c(c7)n(C)c(=O)n8C7CCC(=O)NC7=O)CC6)CC5)CC4)n3)cc2)cc1C#N` (stereo not shown) [Compound 93 trifluoroacetate, 3-chloro-5-(2-(4-((2-(9-((4-(1-(2,6-dioxopiperidin-3-yl)-3-methyl-2-oxo-2,3-dihydro-1H-benzo[d]imidazol-5-yl)piperidin-1-yl)methyl)-3-azaspiro[5.5]undecan-3-yl)pyrimidin-4-yl)methoxy)phenyl)propan-2-yl)-2-methoxybenzonitrile], for which the pIC50 was 6.26. On the same count and under the same terms, the same measure for `Cn1c(=O)n(C2CCC(=O)NC2=O)c2ccc(C3CCN(C4CCN(CC5(F)CCN(c6nccc(COc7ccc(C(C)(C)c8cc(Cl)cc(C#N)c8)cc7)n6)CC5)CC4)CC3)cc21` (stereo not shown) [Compound 90 trifluoroacetate, 3-chloro-5-(2-(4-((2-(4-((4-(1-(2,6-dioxopiperidin-3-yl)-3-methyl-2-oxo-2,3-dihydro-1H-benzo[d]imidazol-5-yl)-[1,4′-bipiperidin]-1′-yl)methyl)-4-fluoropiperidin-1-yl)pyrimidin-4-yl)methoxy)phenyl)propan-2-yl)benzonitrile]: 6.20; for `CC(C)(c1ccc(OCc2ccnc(N3CC(CN4CCC5(CC4)CCN(c4ccc6c(c4)C(=O)N(C4CCC(=O)NC4=O)C6=O)CC5)C3)n2)cc1)c1cc(Cl)cc(C#N)c1` (stereo not shown) [Compound 87 trifluoroacetate, 3-chloro-5-(2-(4-((2-(3-((9-(2-(2,6-dioxopiperidin-3-yl)-1,3-dioxoisoindolin-5-yl)-3,9-diazaspiro[5.5]undecan-3-yl)methyl)azetidin-1-yl)pyrimidin-4-yl)methoxy)phenyl)propan-2-yl)benzonitrile]: 6.52; for `CC(C)(c1ccc(OCc2ccnc(N3CCN(C4CN(C5CCCN(c6ccc7c(c6)C(=O)N(C6CCC(=O)NC6=O)C7=O)C5)C4)CC3)n2)cc1)c1cc(Cl)cc(C#N)c1` (stereo not shown) [Compound 52 trifluoroacetate, 3-chloro-5-(2-(4-((2-(4-(1-(1-(2-(2,6-dioxopiperidin-3-yl)-1,3-dioxoisoindolin-5-yl)piperidin-3-yl)azetidin-3-yl)piperazin-1-yl)pyrimidin-4-yl)methoxy)phenyl)propan-2-yl)benzonitrile]: 6.02. Regarding `CC(C)(c1ccc(OCc2ccnc(N3CCC(N4CCC(CN5CCN(c6ccc7c(c6)C(=O)N(C6CCC(=O)NC6=O)C7=O)CC5)CC4)CC3)n2)cc1)c1cc(Cl)cc(C#N)c1` (stereo not shown) [Compound 42 trifluoroacetate, 3-chloro-5-(2-(4-((2-(4-((4-(2-(2,6-dioxopiperidin-3-yl)-1,3-dioxoisoindolin-5-yl)piperazin-1-yl)methyl)-[1,4′-bipiperidin]-1′-yl)pyrimidin-4-yl)methoxy)phenyl)propan-2-yl)benzonitrile], the pIC50 was 6.34. In the case of `Cn1c(=O)n(C2CCC(=O)NC2=O)c2cccc(CN3CCC(N4CCC5(CCN(c6nccc(COc7ccc(C(C)(C)c8cc(Cl)cc(C#N)c8)cc7)n6)CC5)CC4)CC3)c21` (stereo not shown) [Compound 100 trifluoroacetate, 3-chloro-5-(2-(4-((2-(9-(1-((1-(2,6-dioxopiperidin-3-yl)-3-methyl-2-oxo-2,3-dihydro-1H-benzo[d]imidazol-4-yl)methyl)piperidin-4-yl)-3,9-diazaspiro[5.5]undecan-3-yl)pyrimidin-4-yl)methoxy)phenyl)propan-2-yl)benzonitrile], the pIC50 is 6.24.
